Results taken from EPA's CvTdb concentration-time database.

Assays:
[1] = system: Rat; test: concentration in brain after dosing; conditions: 4 h; dosed: 2-Methyltetrahydrofuran; 40 mg/kg; iv; Male; Harlan Sprague Dawley
[2] = system: Rat; test: concentration in brain after dosing; conditions: 0.5 h; dosed: 2-Methyltetrahydrofuran; 40 mg/kg; iv; Female; Harlan Sprague Dawley
[3] = system: Rat; test: concentration in plasma after dosing; conditions: 0.2 h; dosed: 2-Methyltetrahydrofuran; 40 mg/kg; iv; Male; Harlan Sprague Dawley
[4] = system: Rat; test: concentration in brain after dosing; conditions: 0.5 h; dosed: Fluorotelomer alcohol 8+2; 80 mg/kg; oral; Female; Harlan Sprague Dawley
[5] = system: Rat; test: concentration in brain after dosing; conditions: 3 h; dosed: Fluorotelomer alcohol 8+2; 80 mg/kg; oral; Female; Harlan Sprague Dawley
[6] = system: Rat; test: concentration in plasma after dosing; conditions: dosed: Fluorotelomer alcohol 8+2, 12 mg/kg, oral, Male, Harlan Sprague Dawley
[7] = system: Rat; test: concentration in plasma after dosing; conditions: dosed: 678-39-7, 40 mg/kg, iv, Male, F344
[8] = system: Rat; test: concentration in kidney after dosing; conditions: 1 h; dosed: Fluorotelomer alcohol 8+2; 80 mg/kg; oral; Female; Harlan Sprague Dawley
[9] = system: Rat; test: concentration in plasma after dosing; conditions: 5 min; dosed: 678-39-7; 12 mg/kg; iv; Male; F344
[10] = system: Rat; test: concentration in kidney after dosing; conditions: 3 h; dosed: Fluorotelomer alcohol 8+2; 24 mg/kg; oral; Male; Harlan Sprague Dawley
[11] = system: Rat; test: concentration in plasma after dosing; conditions: 24 h; dosed: Gemfibrozil; 100 mg/kg; oral; Male; Sprague-Dawley
[12] = system: Rat; test: concentration in plasma after dosing; conditions: 24 h; dosed: Gemfibrozil; 100 mg/kg; oral; Male; Sprague-Dawley; remark: listed apart in the source
[13] = system: Rat; test: concentration in plasma after dosing; conditions: 0.25 h; dosed: Gemfibrozil; 50 mg/kg; oral; Male; Sprague-Dawley
[14] = system: Rat; test: concentration in plasma after dosing; conditions: 4 h; dosed: Gemfibrozil; 50 mg/kg; oral; Male; Sprague-Dawley
[15] = system: Rat; test: concentration in plasma after dosing; conditions: 10 min; dosed: Gemfibrozil; 4.29 mg/kg; oral; Male; Sprague-Dawley
[16] = system: Rat; test: concentration in plasma after dosing; conditions: 10 h; dosed: Gemfibrozil; 50 mg/kg; oral; Male; Sprague-Dawley
[17] = system: Rat; test: concentration in plasma after dosing; conditions: 0.5 h; dosed: Gemfibrozil; 100 mg/kg; oral; Male; Sprague-Dawley
[18] = system: Rat; test: concentration in brain after dosing; conditions: 6 h; dosed: Perfluorohexanoic Acid; 80 mg/kg; oral; Male; Harlan Sprague Dawley
[19] = system: Rat; test: concentration in brain after dosing; conditions: 1 h; dosed: Perfluorohexanoic Acid; 80 mg/kg; oral; Female; Harlan Sprague Dawley
[20] = system: Rat; test: concentration in liver after dosing; conditions: 0.5 h; dosed: Perfluorohexanoic Acid; 80 mg/kg; oral; Female; Harlan Sprague Dawley
[21] = system: Rat; test: concentration in plasma after dosing; conditions: 0.25 h; dosed: Perfluorohexanoic Acid; 40 mg/kg; iv; Male; F344
[22] = system: Rat; test: concentration in kidney after dosing; conditions: 6 h; dosed: Perfluorohexanoic Acid; 80 mg/kg; oral; Female; Harlan Sprague Dawley
[23] = system: Rat; test: concentration in kidney after dosing; conditions: 1 h; dosed: Perfluorohexanoic Acid; 80 mg/kg; oral; Male; Harlan Sprague Dawley
[24] = system: Rat; test: concentration in kidney after dosing; conditions: 1 h; dosed: Perfluorohexanoic Acid; 80 mg/kg; oral; Male; Harlan Sprague Dawley; remark: listed apart in the source
[25] = system: Rat; test: concentration in plasma after dosing; conditions: 0.75 h; dosed: Perfluorohexanoic Acid; 40 mg/kg; iv; Male; F344
[26] = system: Rat; test: concentration in plasma after dosing; conditions: 1.5 h; dosed: Perfluorohexanoic Acid; 40 mg/kg; iv; Male; F344
[27] = system: Rat; test: concentration in kidney after dosing; conditions: 0.5 h; dosed: Perfluorohexanoic Acid; 80 mg/kg; oral; Female; Harlan Sprague Dawley
[28] = system: Rat; test: concentration in plasma after dosing; conditions: 1 h; dosed: Perfluorohexanoic Acid; 80 mg/kg; oral; Male; Harlan Sprague Dawley
[29] = system: Rat; test: concentration in kidney after dosing; conditions: 12 h; dosed: Perfluorohexanoic Acid; 80 mg/kg; oral; Male; Harlan Sprague Dawley
[30] = system: Rat; test: concentration in plasma after dosing; conditions: dosed: Perfluorohexanoic Acid, 80 mg/kg, oral, Male, Harlan Sprague Dawley
[31] = system: Rat; test: concentration in plasma after dosing; conditions: 3 h; dosed: Perfluorohexanoic Acid; 80 mg/kg; oral; Male; Harlan Sprague Dawley
[32] = system: Rat; test: concentration in liver after dosing; conditions: 1848 h; dosed: Perfluorooctane Sulfonate; 2 mg/kg; oral; Female; Harlan Sprague Dawley
[33] = system: Rat; test: concentration in liver after dosing; conditions: 864 h; dosed: Perfluorooctane Sulfonate; 20 mg/kg; oral; Female; F344
[34] = system: Rat; test: concentration in brain after dosing; conditions: 6 h; dosed: Perfluorooctane Sulfonate; 20 mg/kg; oral; Male; Harlan Sprague Dawley
[35] = system: Rat; test: concentration in liver after dosing; conditions: 864 h; dosed: Perfluorooctane Sulfonate; 2 mg/kg; oral; Female; Harlan Sprague Dawley
[36] = system: Rat; test: concentration in plasma after dosing; conditions: 864 h; dosed: Perfluorooctane Sulfonate; 2 mg/kg; oral; Female; Harlan Sprague Dawley
[37] = system: Rat; test: concentration in plasma after dosing; conditions: 3360 h; dosed: Perfluorooctane Sulfonate; 2 mg/kg; oral; Female; Harlan Sprague Dawley
[38] = system: Rat; test: concentration in plasma after dosing; conditions: dosed: Perfluorooctane Sulfonate, 2 mg/kg, iv, Female, F344
[39] = system: Rat; test: concentration in plasma after dosing; conditions: dosed: Perfluorooctane Sulfonate, 2 mg/kg, iv, Male, F344
[40] = system: Rat; test: concentration in kidney after dosing; conditions: 864 h; dosed: Perfluorooctane Sulfonate; 2 mg/kg; oral; Female; Harlan Sprague Dawley

CC1CCCO1 (configuration not stated) [2-Methyltetrahydrofuran]
Conditions | concentration in brain [ng/mL] | concentration in plasma [ng/mL]
[1] | 184 | –
[2] | 13800 | –
[3] | – | 32200

O=C(O)CCC(F)(F)C(F)(F)C(F)(F)C(F)(F)C(F)(F)C(F)(F)C(F)(F)F [Fluorotelomer acid 7+3]
Conditions | concentration in brain [ng/g] | concentration in kidney [ng/g] | concentration in plasma [ng/mL]
[4] | 114 | – | –
[5] | 1580 | – | –
[8] | – | 584 | –
[9] | – | – | 13.1
[10] | – | 1320 | –

concentration in plasma [ng/mL]
Conditions | 0.5 h | 9 h | 48 h | 192 h
[6] | – | – | 245 | 25.5
[7] | 470 | 2680 | – | –

Cc1ccc(C)c(OCCCC(C)(C)C(=O)O)c1 [Gemfibrozil]
Conditions | concentration in plasma [ng/mL]
[11] | 761
[12] | 1050
[13] | 79300
[14] | 5620
[15] | 657
[16] | 1930
[17] | 40400

O=C(O)C(F)(F)C(F)(F)C(F)(F)C(F)(F)C(F)(F)F [Perfluorohexanoic Acid]
Conditions | concentration in brain [ng/g] | concentration in kidney [ng/g] | concentration in liver [ng/g] | concentration in plasma [ng/mL]
[18] | 694 | – | – | –
[19] | 1340 | – | – | –
[20] | – | – | 24900 | –
[21] | – | – | – | 6480
[22] | – | 2180 | – | –
[23] | – | 86000 | – | –
[24] | – | 79900 | – | –
[25] | – | – | – | 18600
[26] | – | – | – | 175
[27] | – | 48100 | – | –
[28] | – | – | – | 146000
[29] | – | 1990 | – | –
[31] | – | – | – | 76100

[30]
Conditions | concentration in plasma [ng/mL]
5 min | 29100
9 h | 4040

O=S(=O)([O-])C(F)(F)C(F)(F)C(F)(F)C(F)(F)C(F)(F)C(F)(F)C(F)(F)C(F)(F)F [Perfluorooctane Sulfonate]
Conditions | concentration in brain [ng/g] | concentration in kidney [ng/g] | concentration in liver [ng/g] | concentration in plasma [ng/mL]
[32] | – | – | 6900 | –
[33] | – | – | 77100 | –
[34] | 4440 | – | – | –
[35] | – | – | 8950 | –
[36] | – | – | – | 1490
[37] | – | – | – | 144
[40] | – | 1390 | – | –

concentration in plasma [ng/mL]
Conditions | 5 min | 6 h | 192 h | 864 h | 1704 h | 3216 h
[38] | 5590 | – | 4170 | – | 940 | –
[39] | – | 4220 | – | 1290 | – | 359
